# “And” between values parts separate entries of the source, which are not always exact repeats. Equal entries are not always repeated. Inconclusive results and toxic doses are left out.
# Tested on: P388 leukemia ip, CD2F1 mice, survival T/C
# Assay: NCI In Vivo Anticancer Drug Screen. Data for tumor model P388 Leukemia (intraperitoneal) in CD2F1 (CDF1) mice
# Conditions: endpoint: median survival time, higher = longer survival
# Summary of the method: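 Mice carrying the transplanted tumor received test compound or vehicle. Survival was recorded in each group, and the value is the treated-group measurement divided by that of the vehicle-treated control group.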
# [1] = dose: 50.0 mg/kg/injection, schedule: Q01DX009 (ip), vehicle: Klucel (hydroxypropylcellulose) (HPC)
# [2] = dose: 100.0 mg/kg/injection, schedule: Q01DX009 (ip), vehicle: Klucel (hydroxypropylcellulose) (HPC)
# [3] = dose: 200.0 mg/kg/injection, schedule: Q01DX009 (ip), vehicle: Klucel (hydroxypropylcellulose) (HPC)
# [4] = dose: 50.0 mg/kg/injection, schedule: Q01DX005 (ip), vehicle: saline with Tween-80
# [5] = dose: 100.0 mg/kg/injection, schedule: Q01DX005 (ip), vehicle: saline with Tween-80
# [6] = dose: 200.0 mg/kg/injection, schedule: Q01DX005 (ip), vehicle: saline with Tween-80
smiles,measurement,setting,value
Cn1c(-c2ccccc2)c(-c2ccccc2)c(=O)c(-c2ccccc2)c1-c1ccccc1,T/C,[1],92 % of control
same,T/C,[2],92 % of control
same,T/C,[3],91 % of control
O=C1c2cc([N+](=O)[O-])cc3cc([N+](=O)[O-])cc(c23)C(=O)N1CCNCCN1C(=O)c2cc([N+](=O)[O-])cc3cc([N+](=O)[O-])cc(c23)C1=O,T/C,[4],100 % of control and 123 % of control
same,T/C,[5],107 % of control
same,T/C,[6],105 % of control and 88 % of control
O=C(Cc1ccccc1)NC1C(=O)N2c3c(CO)cccc3OCC12 (stereo not given),T/C,"dose: 50.0 mg/kg/injection, schedule: Q01DX001 (ip), vehicle: saline with Tween-80",100 % of control
same,T/C,"dose: 100.0 mg/kg/injection, schedule: Q01DX001 (ip), vehicle: saline with Tween-80",90 % of control
same,T/C,"dose: 200.0 mg/kg/injection, schedule: Q01DX001 (ip), vehicle: saline with Tween-80",94 % of control
Nc1nc(F)nc2c1ncn2C1OC(COP(=O)(O)O)C(O)C1O (stereo not given),T/C,"dose: 12.5 mg/kg/injection, schedule: Q01DX009 (ip), vehicle: Klucel (hydroxypropylcellulose) (HPC)",110 % of control
same,T/C,"dose: 25.0 mg/kg/injection, schedule: Q01DX009 (ip), vehicle: Klucel (hydroxypropylcellulose) (HPC)",117 % of control
same,T/C,[1],120 % of control
same,T/C,"dose: 50.0 mg/kg/injection, schedule: Q04DX002 (ip), vehicle: saline",100 % of control
same,T/C,[2],153 % of control and 165 % of control
same,T/C,"dose: 100.0 mg/kg/injection, schedule: Q04DX002 (ip), vehicle: saline",107 % of control
same,T/C,"dose: 175.0 mg/kg/injection, schedule: Q01DX009 (ip), vehicle: saline",203 % of control and 213 % of control
same,T/C,[3],111 % of control and 215 % of control
same,T/C,"dose: 200.0 mg/kg/injection, schedule: Q01DX009 (ip), vehicle: saline",222 % of control and 224 % of control
same,T/C,"dose: 200.0 mg/kg/injection, schedule: Q04DX002 (ip), vehicle: saline",111 % of control and 117 % of control
same,T/C,"dose: 225.0 mg/kg/injection, schedule: Q01DX009 (ip), vehicle: saline",230 % of control and 233 % of control
same,T/C,"dose: 250.0 mg/kg/injection, schedule: Q01DX009 (ip), vehicle: saline",236 % of control and 241 % of control
same,T/C,"dose: 400.0 mg/kg/injection, schedule: Q04DX002 (ip), vehicle: saline",123 % of control
same,T/C,"dose: 1500.0 mg/kg/injection, schedule: Q01DX001 (ip), vehicle: saline",155 % of control
same,T/C,"dose: 1600.0 mg/kg/injection, schedule: Q04DX002 (ip), vehicle: saline",182 % of control
O=C(Cc1ccc(C2=NCCN2)cc1[N+](=O)[O-])c1ccc(C2=NCCN2)cc1,T/C,"dose: 0.39 mg/kg/injection, schedule: Q01DX005 (ip), vehicle: saline",97 % of control
same,T/C,"dose: 0.79 mg/kg/injection, schedule: Q01DX005 (ip), vehicle: saline",101 % of control
same,T/C,"dose: 1.56 mg/kg/injection, schedule: Q01DX005 (ip), vehicle: saline",101 % of control and 87 % of control
same,T/C,"dose: 6.25 mg/kg/injection, schedule: Q01DX005 (ip), vehicle: saline",106 % of control and 87 % of control
COc1cc2cc3cc(-c4ccc(Cl)cc4)c(N4CCN(C)CC4)nc3nc2cc1OC,T/C,"dose: 60.0 mg/kg/injection, schedule: Q01DX005 (ip), vehicle: saline with Tween-80",94 % of control
same,T/C,"dose: 120.0 mg/kg/injection, schedule: Q01DX005 (ip), vehicle: saline with Tween-80",101 % of control
same,T/C,"dose: 240.0 mg/kg/injection, schedule: Q01DX005 (ip), vehicle: saline with Tween-80",111 % of control
CCOC(=O)/C=C(\C)N1CCCCC1,T/C,"dose: 100.0 mg/kg/injection, schedule: Q04DX003 (ip), vehicle: saline",100 % of control
same,T/C,"dose: 200.0 mg/kg/injection, schedule: Q04DX003 (ip), vehicle: saline",100 % of control
same,T/C,"dose: 400.0 mg/kg/injection, schedule: Q04DX003 (ip), vehicle: saline",100 % of control
S=C(NCCN1CCN2Cc3[nH]c4ccccc4c3CC2C1)Nc1ccccc1 (stereo not given),T/C,[4],94 % of control
same,T/C,[5],91 % of control
same,T/C,[6],102 % of control
c1ccc(-c2[nH]c3cc4c(cc3c2-c2ccccc2)Oc2ccccc2O4)cc1,T/C,"dose: 17.5 mg/kg/injection, schedule: Q01DX009 (ip), vehicle: Klucel (hydroxypropylcellulose) (HPC)",116 % of control
same,T/C,"dose: 35.0 mg/kg/injection, schedule: Q01DX009 (ip), vehicle: Klucel (hydroxypropylcellulose) (HPC)",113 % of control
same,T/C,"dose: 70.0 mg/kg/injection, schedule: Q01DX009 (ip), vehicle: Klucel (hydroxypropylcellulose) (HPC)",104 % of control
O=C1c2ccccc2C(=O)c2c(NC(=O)c3ccc4c5c(ncnc35)-c3ccccc3C4=O)cccc21,T/C,[1],95 % of control
same,T/C,[2],100 % of control
same,T/C,[3],94 % of control
C=CC(=NC(C)(C)C)Nc1ccccc1,T/C,"dose: 6.25 mg/kg/injection, schedule: Q01DX009 (ip), vehicle: saline with Tween-80",101 % of control
same,T/C,"dose: 12.5 mg/kg/injection, schedule: Q01DX009 (ip), vehicle: saline with Tween-80",105 % of control
same,T/C,"dose: 25.0 mg/kg/injection, schedule: Q01DX009 (ip), vehicle: saline with Tween-80",108 % of control
OCCOCCN1CCN(C(c2ccccc2)c2ccccc2)CC1,T/C,"dose: 50.0 mg/kg/injection, schedule: Q01DX009 (ip), vehicle: saline",103 % of control
same,T/C,"dose: 100.0 mg/kg/injection, schedule: Q01DX009 (ip), vehicle: saline",103 % of control
O=C(Nc1ccccc1)/C(Cl)=C(/Cl)C(=O)C(Cl)(Cl)Cl,T/C,"dose: 12.5 mg/kg/injection, schedule: Q01DX009 (ip), vehicle: distilled water + Tween-80",103 % of control
same,T/C,"dose: 25.0 mg/kg/injection, schedule: Q01DX009 (ip), vehicle: distilled water + Tween-80",103 % of control

# From PubChem BioAssay AID330 (DTP/NCI, 2004)
